Measurements from ChEMBL document CHEMBL2375250, “Efficient synthesis of new (R)-2-amino-1-butanol derived ureas, thioureas and acylthioureas and in vitro evaluation of their antimycobacterial activity” (Eur J Med Chem, 2013).
In brackets after ≈: the same amount, converted by molar mass. Counter-ions that a name gives are not always drawn.

How the values were obtained:
[1] = tested on: Mycobacterium tuberculosis; test: Antimycobacterial activity against Mycobacterium tuberculosis H37Rv assessed as growth inhibition after 45 days by Lowenstein-Jensen method; format: functional
[2] = Selectivity index, ratio of IC50 for HEK293T cells to MIC for Mycobacterium tuberculosis H37Rv; format: functional, HEK-293T
HEK-293T = test: Cytotoxicity against HEK293T cells assessed as cell viability after 72 hrs by MTT assay; format: cell-based; conditions: Homo sapiens
[3] = tested on: Mycobacterium tuberculosis; test: Antimycobacterial activity against Mycobacterium tuberculosis H37Rv assessed as bacterial growth at 5 ug/mL after 45 days by Lowenstein-Jensen method; format: functional
Mycobacterium avium = test: Antimycobacterial activity against Mycobacterium avium 724 assessed as growth inhibition after 12 days microdrop agar proportion test; format: functional; conditions: Mycobacterium avium, 724, 288 h
Mycolicibacterium aurum = test: Antimycobacterial activity against Mycobacterium aurum A+ assessed as growth inhibition after 4 days microdrop agar proportion test; format: functional; conditions: 96 h
[4] = tested on: Mycobacterium tuberculosis; test: Antimycobacterial activity against Mycobacterium tuberculosis assessed as growth inhibition; format: functional

| Structure (SMILES) | MIC [1] [µM] | Activity [3] [%] | further results |
| --- | --- | --- | --- |
| CC[C@H](CO)NC(=S)NC(=O)CCc1ccccc1 | 7.13 (≈ 2 µg/mL) |  | Selectivity Index [2]: 9.3; IC50 (HEK-293T): 66.2 µM |
| CC[C@H](CO)NC(=O)Nc1ccc(NC(=O)N[C@H](CC)CO)cc1 | > 14.8 | 100 |  |
| CC[C@H](CO)NC(=O)NCCCCCCNC(=O)N[C@H](CC)CO | > 14.4 | 100 |  |
| CC[C@H](CO)NC(=O)NC(C)(C)C | > 26.6 | 100 |  |
| CC[C@H](CO)NC(=O)NC12CC3CC(CC(C3)C1)C2 | > 18.8 | 100 |  |
| CC[C@H](CO)NC(=O)NC1CCCCC1 | > 23.3 | 100 |  |
| CC[C@H](CO)NC(=O)Nc1ccccc1 | > 24 | 100 |  |
| CC(C)CCOc1ccc(NC(=S)Nc2ccc(OCCC(C)C)cc2)cc1 [TIOCARLIDE] |  |  | MIC (Mycobacterium avium): 4.99 µM (≈ 2 µg/mL); MIC (Mycolicibacterium aurum): 4.99 µM |
| CC[C@H](CO)NC(=S)NC(=O)c1ccc(N(C)C)cc1 | 3.39 (≈ 1 µg/mL) |  | Selectivity Index [2]: 3.8; IC50 (HEK-293T): 12.8 µM |
| CC(C)=CCC/C(C)=C/CNCCNC1C2CC3CC(C2)CC1C3 (stereo unspecified) [SQ109] |  |  | MIC [4]: 0.7 µM (≈ 0.231 µg/mL) |
| CC[C@H](CO)NC(=O)N[C@H](C)c1ccccc1 | > 21.2 | 100 |  |
| CC[C@H](CO)NC(=O)NCc1ccccc1 | > 22.5 | 100 |  |
| CCCCNC(=O)N[C@H](CC)CO | > 26.6 | 100 |  |
| CC[C@H](CO)NC(=S)NC | > 30.8 | 100 |  |
| CC[C@H](CO)NC(=S)NC(=O)/C=C/c1ccccc1 | 0.36 (≈ 0.1 µg/mL) |  | Selectivity Index [2]: 119.2; IC50 (HEK-293T): 42.9 µM |
| CC[C@H](CO)NC(=S)NC(=O)c1ccccc1O | 7.46 (≈ 2 µg/mL) |  | Selectivity Index [2]: 14; IC50 (HEK-293T): 104 µM |
| CC[C@H](CO)NC(=O)Nc1ccc(Cc2ccc(NC(=O)N[C@H](CC)CO)cc2)cc1 | > 11.7 | 100 |  |
| CC[C@H](CO)NC(=O)NCC(c1ccccc1)c1ccccc1 | 4.8 (≈ 1.5 µg/mL) | 100 |  |
| CCCNC(=O)N[C@H](CC)CO | > 28.7 | 100 |  |
| CCNC(=S)N[C@H](CC)CO | > 28.4 | 100 |  |
| CC[C@H](CO)NC(=O)NCCc1ccccc1 | > 21.2 | 100 |  |
| CC[C@H](CO)NC(=O)N[C@H](CC)CO | > 24.5 | 100 |  |
| CC[C@@H](CO)NCCN[C@@H](CC)CO [ETHAMBUTOL HYDROCHLORIDE] | 7.22 |  | MIC [4]: 7.22 µM |
| CC[C@H](CO)NC(=O)N(C)C | > 31.2 | 100 |  |
